Literature values as cited in patent publication US4271152A, “Psycho-pharmacological peptides” (Akzo N.V., priority 1979, dated 1981).
Entries after “also recorded” stand apart in the source; their conditions may differ.

Key:
[1] = test system: avoidance behaviour of rats; conditions: pole-jumping test; for extinction of the (pole-jumping) avoidance behaviour: background knowledge / earlier Dutch application
[2] = can be antagonized by naloxon

Substance	affinity to the opiate receptor (opiate receptor)	extinction of the (pole-jumping) avoidance behaviour [1]	counteraction by morphine antagonists (naloxon, naltrexon) of the inhibition of extinction [1]	analgetic effect [2]
D-Ala^2 -Met-enkephalin	affinity to the opiate receptor			
Leu-enkephaline	affinity to the opiate receptor			
Met-enkephalin	affinity to the opiate receptor	inhibit the extinction of the avoidance behaviour		
α-endorphin	affinity to the opiate receptor	inhibit the extinction of the avoidance behaviour; also recorded: delayed the extinction of the avoidance behaviour		
β-endorphin (YGGFMTSEKSQTPLVTLFKNAIIKNAYKKGE; Beta-endorphin; UniProt P01189 237-267, looked up)		inhibits the extinction	cannot be counteracted by known morphine antagonists	analgetic effect
γ-endorphin		accelerate the extinction of the avoidance behaviour		
